# Test results: patent US20060183670A1, “Autoantigen composition” (priority 2001, published 2006)
# Assays:
# [1] = system: NOD mice; settings: cited from earlier work
# [2] = system: mice; settings: mouse, in vivo
# From the text: In our animal study where we used IFA with human insulin B-chain or with human GAD65 protein, the mice were carefully observed for any adverse effect.
# [3] = system: NOD scid/scid mice; assay: Adoptive transfer of splenocytes from vaccinated NOD mice into NOD scid/scid mice; assay type: in vivo; settings: for effect on incidence of diabetes in NOD scid/scid adoptive transfer model (in words): antigen in IFA; for scid/scid recipient mice that became diabetic: antigen in IFA sc. to NOD donors at 3, 5 and 7 weeks, splenocytes cotransferred with untreated NOD splenocytes, by the 75th day after adoptive transfer, 16 mice/group
# Method: To test the efficacy of autoantigens in IFA, NOD mice were vaccinated with human recombinant GAD65 (300 μg/mice) in IFA (total volume 0.1 ml), human insulin B-chain (20.1 μg/mice) in IFA (total volume 0.1 ml) and sham protein (Lysozyme, 200 μg/mice) in IFA (total volume 0.1 ml) sc. in the inguinal areas at 3, 5 and 7 weeks of age. At 9 weeks of age the treated mice were sacrificed and their splenocytes (1.0×10^7 cells) were cotransfered with splenocytes from 9 weeks old untreated NOD mice (1.0×10^7 cells) into 9-11 weeks old NOD scid/scid mice (16 mice/group; total 2.0×10^7 cells/mice). Control group received splenocytes (2.0×10^7 cells/mice) from untreated NOD mice.
# [4] = system: NOD mice; assay: Histological insulitis grading of pancreases of vaccinated NOD mice; assay type: in vivo; settings: antigen in IFA; for mean insulitis score: 0-4 scale, pancreases at the time of adoptive transfer (9 weeks of age)
# Method: Histological studies were performed on the pancreases of the vaccinated mice at the time of adoptive transfer.
# [5] = system: human; settings: pilot human trial; Keller et al. 1993; cited from earlier work
substance,measurement,setting,value
"GAD65: Human recombinant GAD65, 585 amino acid β-cell autoantigen (SEQ ID NO:2), given in IFA",Th1/Th2 balance,"[1]; nasal administration, Tian et al. 1996",change in Th1/Th2 balance in favor of Th2 ‘protective’ cells response
same,"adverse effects, general and local",[2],well tolerated without any detectable side effects
same,effect on incidence of diabetes in NOD scid/scid adoptive transfer model (in words),[3],significantly reduces the incidence of diabetes
same,scid/scid recipient mice that became diabetic,[3],4/16
same,mean insulitis score,[4],1.31
same,effect on insulitis in NOD mice (in words),[4],reduced insulitis
"Insulin: β-cell specific major protein, moderately immunogenic when used alone",development of diabetes mellitus,[5],delaying the development of diabetes mellitus
Lysozyme [reference compound],effect on incidence of diabetes in NOD scid/scid adoptive transfer model (in words),[3],not effective
same,scid/scid recipient mice that became diabetic,[3],all
same,mean insulitis score,[4],2.64
human recombinant insulin B-chain: Literature recombinant human insulin B-chain given in IFA (Ramiya et al.) [reference compound],cytokine pattern in NOD mice islets,"[1]; in IFA, Ramiya et al. 1996",Th2 cytokine pattern
